Assay results published in patent US11661410B2 (GLOBAL BLOOD THERAPEUTICS, INC., priority 2017, dated 2023).
Counter-ions that a name gives are not always drawn. Like-named read-outs stand apart in the source and are kept apart here.

Target: G9a (Homo sapiens (Human), UniProt Q96KQ7)
Assay: G9a AlphaLISA enzymatic activity assay
Assay type: biochemical
[1] = G9a AlphaLISA, negative log of the IC50 value in molar

Sequence of G9a (Q96KQ7 whole entry): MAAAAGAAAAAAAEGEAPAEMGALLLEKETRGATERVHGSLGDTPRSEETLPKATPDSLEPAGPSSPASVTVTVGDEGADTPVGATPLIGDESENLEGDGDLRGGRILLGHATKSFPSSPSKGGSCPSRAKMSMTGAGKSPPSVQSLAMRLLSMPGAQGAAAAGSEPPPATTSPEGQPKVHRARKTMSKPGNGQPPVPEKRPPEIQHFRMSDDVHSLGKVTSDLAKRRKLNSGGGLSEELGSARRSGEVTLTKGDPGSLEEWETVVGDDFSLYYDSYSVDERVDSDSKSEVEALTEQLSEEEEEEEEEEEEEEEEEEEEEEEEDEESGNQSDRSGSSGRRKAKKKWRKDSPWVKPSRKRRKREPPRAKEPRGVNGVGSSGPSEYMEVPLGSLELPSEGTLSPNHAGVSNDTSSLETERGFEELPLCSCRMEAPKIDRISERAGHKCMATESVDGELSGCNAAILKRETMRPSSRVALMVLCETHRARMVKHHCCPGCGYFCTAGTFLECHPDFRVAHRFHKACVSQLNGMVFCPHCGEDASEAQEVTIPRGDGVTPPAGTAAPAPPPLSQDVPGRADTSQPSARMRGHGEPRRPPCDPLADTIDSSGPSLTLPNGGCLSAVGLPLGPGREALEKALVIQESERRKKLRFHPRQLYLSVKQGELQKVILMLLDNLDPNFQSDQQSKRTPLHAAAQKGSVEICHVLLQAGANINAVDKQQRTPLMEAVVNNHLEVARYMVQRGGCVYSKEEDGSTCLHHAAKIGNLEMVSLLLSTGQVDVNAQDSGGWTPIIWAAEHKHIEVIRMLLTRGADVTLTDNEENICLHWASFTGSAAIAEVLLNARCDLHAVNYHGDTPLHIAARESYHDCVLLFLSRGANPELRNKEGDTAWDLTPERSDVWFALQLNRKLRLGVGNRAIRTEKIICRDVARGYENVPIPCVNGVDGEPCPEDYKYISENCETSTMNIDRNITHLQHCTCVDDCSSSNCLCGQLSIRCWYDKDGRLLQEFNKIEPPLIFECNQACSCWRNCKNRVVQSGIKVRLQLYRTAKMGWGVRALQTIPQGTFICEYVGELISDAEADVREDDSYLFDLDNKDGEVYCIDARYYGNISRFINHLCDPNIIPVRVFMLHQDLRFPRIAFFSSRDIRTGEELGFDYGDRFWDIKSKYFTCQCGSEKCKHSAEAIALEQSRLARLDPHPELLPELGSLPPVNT

Row | pIC50 [1] | Compound | other results
1 |  | COc1cc2nc3c(c(N[C@@H]4CCCN(C)C4)c2cc1OC)CCC3 | pIC50: 5.48
2 | 7.2 | COc1cc2nc3c(c(N[C@@H]4CCCNC4)c2nc1OC)CCC3 [Example 149, (3R)-N-[2,3-dimethoxy-6H,7H, 8Hcyclopenta[b]1,5naphthyridin-9-yl]piperidin-3-amine] | 
3 | 7.5 | COc1cc2nc3c(c(N[C@@H]4CCCNCC4)c2cc1OC)CCC3 [Example 62, (4R)-N-{6,7-dimethoxy-1H,2H,3H-cyclopenta[b]quinolin-9-yl}azepan-4-amine] | 
4 | 7.1 | COc1cc2nc3c(c(N[C@@H]4CCCCNC4)c2nc1OC)CCC3 [Example 402] | 
5 | 7.5 | COc1cc2nc3c(c(N[C@@H]4CCCN(C)CC4)c2cc1OC)CCC3 [Example 63, (4R)-N-{6,7-dimethoxy-1H,2H,3H-cyclopenta[b]quinolin-9-yl}-1-methylazepan-4-amine] | 
6 | 5.87 | COc1cc2nc3c(c(NC4CCN(c5cccc(F)c5)CC4)c2cc1OC)CCC3 [Example 25] | 
7 |  | COc1cc2nc3c(c(N[C@H]4CNCC(F)(F)C4)c2cc1OC)CCC3 [Example 410, (3R)-N-{6,7-dimethoxy-1H,2H,3H-cyclopenta[b]quinolin-9-yl}-5,5-difluoropiperidin-3-amine] | IC50 [1]: > 10 µM
8 | 7.53 | CC(C)N1CCC(Nc2c3c(nc4cc5c(cc24)OCO5)CCC3)CC1 [Example 20] | 
9 | 7.66 | COc1cc2nc3c(c(NC4CCCNC4)c2cc1OC)CCC3 (stereo not shown) [Example 10] | 
10 | 7.4 | COc1cc2nc3c(c(NCC4CCNC4)c2cc1OC)CCC3 (stereo not shown) [Example 65, 6,7-dimethoxy-N-[(pyrrolidin-3-yl)methyl]-1H,2H,3H-cyclopenta[b]quinolin-9-amine] | 
11 | 6.3 | COc1cc2nc3c(c(NC[C@@H]4C[C@H](F)CN4)c2cc1OC)CCC3 [Example 411, N-{[(2S,4S)-4-fluoropyrrolidin-2-yl]methyl}-6,7-dimethoxy-1H,2H,3H-cyclopenta[b]quinolin-9-amine] | 
12 | 7.31 | COc1cc2nc3c(c(NC4CCN(C)CC4)c2cc1OC)CCC3 [Example 9] | 
13 | 6.2 | COc1cc2nc3c(c(N[C@@H]4CCCN(C)C4)c2nc1OC)CCC3 [Example 164, (3R)-N-[2,3-dimethoxy-6H,7H,8H-cyclopenta[b]1,5-naphthyridin-9-yl]-1-methylpiperidin-3-amine] | 
14 | 7 | COc1cc2nc3c(c(N[C@@H]4CCCN(C)CC4)c2nc1OC)CCC3 [Example 165, (4R)-N-{2,3-dimethoxy-6H,7H,8H-cyclopenta[b]1,5-naphthyridin-9-yl}-1-methylazepan-4-amine] | 
15 | 6.5 | COc1cc2nc3c(c(N[C@H]4CNC[C@@H](F)C4)c2cc1OC)CCC3 [Example 412, (3R,5S)-N-{6,7-dimethoxy-1H,2H,3H-cyclopenta[b]quinolin-9-yl}-5-fluoropiperidin-3-amine] | 
16 | 7.4 | COc1cc2nc3c(c(NC4CCN(C5CCCC5)CC4)c2cc1OC)CCC3 [Example 60, 1-cyclopentyl-N-{6,7-dimethoxy-1H,2H,3H-cyclopenta[b]quinolin-9-yl}piperidin-4-amine] | 
17 | 6.12 | COc1cc2nc3c(c(NC4CCN(C(N)=O)CC4)c2cc1OC)CCC3 [Example 58, 4-({6,7-dimethoxy-1H,2H,3H-cyclopenta[b]quinolin-9-yl}amino)piperidine-1-carboxamide] | 
18 | 5.97 | COc1cc2nc3c(c(NC(C)C)c2cc1OC)CCC3 [Example 1, 6,7-dimethoxy-N-(propan-2-yl)-1H,2H,3H-cyclopenta[b]quinolin-9-amine formate] | 
19 | 6.9 | COc1cc2nc3c(c(NC[C@@H]4CCCNC4)c2cc1OC)CCC3 [Example 68, 6,7-dimethoxy-N-{[(3R)-piperidin-3-yl]methyl}-1H,2H,3H-cyclopenta[b]quinolin-9-amine] | 
20 | 5.78 | COc1cc2nc3c(c(NC4CCN(C(C)C)CC4)c2cc1OC)CCCCC3 [Example 33] | 
21 | 7.49 | COc1cc2nc3c(c(NCC4CN(C)C4)c2cc1OC)CCC3 [Example 11] | 
22 | 6.24 | COc1cc2nc3c(c(NC4CCN(C(=O)CO)CC4)c2cc1OC)CCC3 [Example 54, 1-[4-({6,7-dimethoxy-1H,2H,3H-cyclopenta[b]quinolin-9-yl}amino)piperidin-1-yl]-2-hydroxyethan-1-one] | 
23 | 7 | COc1cc2nc3c(c(NCC4CCNCC4)c2cc1OC)CCC3 [Example 67, 6,7-dimethoxy-N-[(piperidin-4-yl)methyl]-1H,2H,3H-cyclopenta[b]quinolin-9-amine] | 
24 | 5.63 | COc1cc2nc3c(c(NC4CCN(c5ccccc5OC)CC4)c2cc1OC)CCC3 [Example 49] | 
25 | 7 | CCOc1cc2nc3c(c(N[C@@H]4CCCNC4)c2cc1OC)CCC3 [Example 407, (3R)-N-{6-ethoxy-7-methoxy-1H,2H,3H-cyclopenta[b]quinolin-9-yl}piperidin-3-amine] | 
26 | 7.2 | COc1cc2nc3c(c(N[C@H]4CNCC(C)(C)C4)c2cc1OC)CCC3 [Example 414, (3R)-N-{6,7-dimethoxy-1H,2H,3H-cyclopenta[b]quinolin-9-yl}-5,5-dimethylpiperidin-3-amine] | 
27 | 8.08 | CCN1CC(Nc2c3c(nc4cc(OC)c(OC)cc24)CCC3)C1 [Example 27] | 

Row | pIC50 [1] | Compound | other results
28 |  | COc1cc2nc3c(c(NC4CCN(c5ccccc5Cl)CC4)c2cc1OC)CCC3 | pIC50: 6.72
29 | 6.11 | COc1cc2nc3c(c(NC4CCN(c5ccccn5)CC4)c2cc1OC)CCC3 [Example 24] | 
30 | 6.9 | COc1cc2nc3c(c(N[C@H]4CNC[C@H](F)C4)c2cc1OC)CCC3 [Example 416, (3R,5R)-N-{6,7-dimethoxy-1H,2H,3H-cyclopenta[b]quinolin-9-yl}-5-fluoropiperidin-3-amine] | 
31 | 5.3 | COc1cc2nc3c(c(NC4CCN(c5cccc(F)c5F)CC4)c2cc1OC)CCC3 [Example 59, 1-(2,3-difluorophenyl)-N-{6,7-dimethoxy-1H,2H,3H-cyclopenta[b]quinolin-9-yl}piperidin-4-amine] | 
32 | 6.66 | COc1cc2nc3c(c(N[C@H]4CCCNC4)c2cc1OC)CCC3 [Example 28] | 
33 | 7.9 | COc1cc2nc3c(c(N[C@H]4CNC[C@H](C)C4)c2cc1OC)CCC3 [Example 409, (3R,5R)-N-{6,7-dimethoxy-1H,2H,3H-cyclopenta[b]quinolin-9-yl}-5-methylpiperidin-3-amine] | 
34 | 6.05 | COc1cc2nc3c(c(NC4CCN(c5ccncc5F)CC4)c2cc1OC)CCC3 [Example 55, N-{6,7-dimethoxy-1H,2H,3H-cyclopenta[b]quinolin-9-yl}-1-(3-fluoropyridin-4-yl)piperidin-4-amine] | 
35 | 5 | CCCOc1cc2nc3c(c(NC)c2cc1OC)CCC3 [Example 2, bis(formic acid)] | 
36 |  | COc1cc2nc3c(c(N[C@@H]4CNCC(F)(F)C4)c2cc1OC)CCC3 [Example 413, (3S)-N-{6,7-dimethoxy-1H,2H,3H-cyclopenta[b]quinolin-9-yl}-5,5-difluoropiperidin-3-amine] | IC50 [1]: > 10 µM
37 | 5.5 | COc1cc2nc3c(c(NC4CC5(C4)CN(C(=O)OC(C)(C)C)C5)c2cc1OC)CCC3 [Example 17] | 
38 | 5.24 | COc1cc2nc3c(c(NCC4CC(N(C)C)C4)c2cc1OC)CCC3 (stereo not shown) | 
39 | 7.3 | COc1cc2nc3c(c(NCC4CCCN4)c2cc1OC)CCC3 (stereo not shown) [Example 66, 6,7-dimethoxy-N-[(pyrrolidin-2-yl)methyl]-1H,2H,3H-cyclopenta[b]quinolin-9-amine] | 
40 |  | N-[(azetidin-3-yl)methyl]-6,7-dimethoxy-1H,2H,3H-cyclopenta[b]quinolin-9-amine—2HCl [Example 8] | pIC50: 7.27
41 | 5.57 | CCOCCOc1cc2nc3c(c(NC)c2cc1OC)CCC3 [Example 4, bis(formic acid)] | 
42 | 7.1 | COc1cc2nc3c(c(NC[C@H]4CCCNC4)c2cc1OC)CCC3 [Example 69] | 
43 | 5 | COc1cc2nc3c(c(NC4CC5(CNC5)C4)c2cc1OC)CCC3 [Example 19, bis(formic acid)] | 
44 | 6.7 | COCCN1CCC(Nc2c3c(nc4cc(OC)c(OC)cc24)CCC3)CC1 [Example 61, N-{6,7-dimethoxy-1H,2H,3H-cyclopenta[b]quinolin-9-yl}-1-(2-methoxyethyl)piperidin-4-amine] | 
45 | 7.22 | COc1cc2nc3c(c(NC4CNC4)c2cc1OC)CCC3 [Example 13] | 
46 | 6.9 | COc1cc2nc3c(c(N[C@@H]4CNC[C@H](C)C4)c2cc1OC)CCC3 [Example 408, (3S,5R)-N-{6,7-dimethoxy-1H,2H,3H-cyclopenta[b]quinolin-9-yl}-5-methylpiperidin-3-amine] | 
47 | 6.54 | COc1cc2c(NC3CCN(C(C)C)CC3)c3c(nc2cc1OCCO)CCC3 [Example 53, 2-[(7-methoxy-9-{[1-(propan-2-yl)piperidin-4-yl]amino}-1H,2H,3H-cyclopenta[b]quinolin-6-yl)oxy]ethan-1-ol] | 
48 | 6.23 | COc1cc2c(NC(C)C)c3c(nc2cc1OCCCC(C)O)CCC3 (stereo not shown) [Example 31] | 
49 |  | COc1cc2nc3c(c(NCc4cn(C)cn4)c2cc1OC)CCC3 [Example 41] | pIC50: 5.32
50 | 7.05 | COc1cc2nc3c(c(NC4CCN(c5cccnc5)CC4)c2cc1OC)CCC3 [Example 23] | 
51 | 6.8 | COc1cc2nc3c(c(NC4CCN(C(C)C)CC4)c2nc1OC)CCC3 [Example 134, N-[2,3-dimethoxy-6H,7H,8H-cyclopenta[b]1,5-naphthyridin-9-yl]-1-(propan-2-yl)piperidin-4-amine] | 
52 | 7.5 | COc1cc2nc3c(c(NCCNC(C)C)c2cc1OC)CCC3 [Example 403, 6,7-dimethoxy-N-{2-[(propan-2-yl)amino]ethyl}-1H,2H,3H-cyclopenta[b]quinolin-9-amine] | 
53 | 6.39 | COc1cc2nc3c(c(NC4CCN(C(=O)COCc5ccccc5)CC4)c2cc1OC)CCC3 [Example 52] | 

Row | Compound | pIC50 [1] | other results
54 | COc1cc2nc3c(c(N[C@@H]4CCCNC4)c2cc1OC)CCC3 [Example 29] | 6.81 | 
55 | COc1cc2nc3c(c(N[C@H]4CNC[C@@H](C)C4)c2cc1OC)CCC3 [Example 286, (3R,5S)-N-{6,7-dimethoxy-1H,2H,3H-cyclopenta[b]quinolin-9-yl}-5-methylpiperidin-3-amine] | 8 | 
